Source: patent publication US8172395B2, “Medical devices having antimicrobial coatings thereon” (priority 2002, dated 2012)
Where no end group is shown, it is not given here.

Experiments:
[1] = tested on: L929 mammalian fibroblasts; test: Cytotoxicity, USP Elution Test (MEM elution); conditions: 5, 0.5 and 0.05 μg/ml; 25% test solution in medium; L929 cells examined after 48 hours
Experimental: Cytotoxicity of Cecropin A melittin hybrid is evaluated according to the USP Elution Test (“Biological Reactivity Tests, In-Vitro: Elution Test”, The United States Pharmacopeial Convention, Inc.). Cell cultures, L929 mammalian fibroblasts (ATCC cell line CCL1, NCTC clone 929), are grown to a near confluent monolayer in 6 well plates (individual wells are 35 mm diameter). […] The serum-supplemented cell culture medium is prepared by mixing 1000 mL Eagle's sterile minimum essential medium (MEM), 100 mL serum, 10 ml L-glutamine solution and antibiotic-antimycotic solution.

[2] = tested on: P. aeruginosa GSU #3 (corneal isolate); type: cell-based, Pseudomnas aeruginosa; conditions: 37° C., 24 h; tested 1-20 μg/ml
Experimental: (§1) Two (2) peptides, Cecropin P1 and Cecropin A-melittin hybrid, from American Peptides Company, Inc. are tested against strains of Pseudomnas aeruginosa GSU # 3 (corneal isolate) and # 9027 (a Gram negative organism), Staphylococcus aureus #6538, and Staphylococcus epidermidis # 17917. The first two strains are Gram negative organisms. The last two strains are Gram positive organisms. These organisms are chosen because they are the most common etiological agents causing infection in the eye. The peptides are kept at −70° C. until they are ready to be used. The peptide concentrations tested are 20, 16, 8, 4, 2 and 1 μg/ml in Delbeco's Phosphate Buffered Saline (PBS).
(§2) The bacteria are harvested, washed twice and adjusted to an O.D. of 10^8 cells/ml. Cells then are serially diluted and adjusted to about 5×10^5 cfu/ml. The cells are inoculated into microtiter plates containing serially decreasing peptide concentrations. The inoculum for the bacterial strains are suspended in Mueller Hinton broth, and the final volume in each well is 200 μl. The microtiter plates are incubated at 37° C. for 24 h. The growth is checked as optical density spectrophotometrically in a microtiter plate reader. The O.D. is compared to the blank and to the growth well to determine the MIC. […]

[3] = tested on: P. aeruginosa (PA) (ATCC# 19660); test: Mouse organ culture model: adherence of P. aeruginosa to scarified mouse cornea; conditions: PA pre-incubated 1 h, PBS control 42.4
Experimental: Using the mouse organ culture model, this assay assesses the ability of a compound to inhibit the binding of P. aeruginosa to scarified eyes. Cecropin A melittin hybrid has been tested at three concentrations: 10, 2, and 0.5 μg/ml.
The solutions are tested for their ability to prevent adherence of P. aeruginosa (PA) (ATCC# 19660) to scarified mouse cornea. For these studies 1×10^7 cfu of PA is combined with each of the solutions at each concentration and incubated for 1 h at room temperature. In addition, 1×10^7 cfu of PA are incubated in PBS for 1 h at room temperature as a control. Following this incubation period, the PA are washed twice to remove the peptide solutions. For each washing step, the cultures are centrifuged at 6,000 rpm for 10 min and pellets are resuspended in 1.0 ml of PBS.
Mouse corneas are scarified under a stereoscopic microscope at 40× magnification. The corneal surface of the eyes is incised with three parallel one-mm wounds. The eyes are then enucleated and placed into sterile culture wells containing 2 ml of MEM.
A 5.0 μl aliquot of each bacterial suspension is delivered onto the surface of the cornea. Eyes are routinely incubated in vitro for 1 h at 37° C. at 95% O2 (5% CO2) after bacterial application. Scanning electron microscopy (SEM) is used to quantitate adherent bacteria.
To determine the efficacy of the peptide, the numbers of bacteria at each concentration is compared from 2 separate identical experiments to the PBS control, p≦0.05 is considered significant. There is a slight reduction at 0.5 μg, but significant difference in adherence at 2 and 10 μg from the control. The values for the bacteria adhered at 0.5 μg is 42.4 and 32.6 for the PBS control and the peptide solution respectively. At 2 μg, it is 42.4 and 15.8 for the PBS control and the peptide solution respectively. At 10 μg, it is 42.4 and 5.8 for the PBS control and the peptide solution respectively.

[4] = tested on: S. epidermidis #17917; test: MIC of peptides in Mueller Hinton broth, microtiter plates; type: cell-based, Staphylococcus epidermidis; conditions: 37° C., 24 h; tested 1-20 μg/ml
Experimental: as §1, §2

[5] = tested on: S. aureus #6538; test: as above; type: cell-based, Staphylococcus aureus; conditions: 37° C., 24 h; tested 1-20 μg/ml
Experimental: as §1, §2

| Molecule | Cytotoxicity (MEM elution test) [1] | Minimal inhibition concentration, P. aeruginosa GSU #3 [2] | bacteria adhered (SEM count) ([3]; 0.5 μg/ml peptide) | bacteria adhered (SEM count) ([3]; 2 μg/ml peptide) | bacteria adhered (SEM count) ([3]; 10 μg/ml peptide) | Minimal inhibition concentration, S. epidermidis #17917 [4] | Minimal inhibition concentration, S. aureus #6538 [5] |
| --- | --- | --- | --- | --- | --- | --- | --- |
| CC[C@H](C)[C@H](N)C(=O)N[C@@H](CC(C)C)C(=O)N1CCC[C@H]1C(=O)N[C@@H](Cc1c[nH]c2ccccc12)C(=O)N[C@@H](CCCCN)C(=O)N[C@@H](Cc1c[nH]c2ccccc12)C(=O)N1CCC[C@H]1C(=O)N[C@@H](Cc1c[nH]c2ccccc12)C(=O)N[C@@H](Cc1c[nH]c2ccccc12)C(=O)N1CCC[C@H]1C(=O)N[C@@H](Cc1c[nH]c2ccccc12)C(=O)N[C@@H](CCCN=C(N)N)C(=O)N[C@@H](CCCN=C(N)N)C(N)=O [Indolicidin] | non-cytotoxic | – | – | – | – | – | – |
| KWKLFKKIGAVLKVL-NH2 (C-terminus assumed) [Cecropin A Melittin Hybrid] | non-cytotoxic | >20 μg/ml^1 μg/mL | 32.6 | 15.8 | 5.8 | – | – |
| SWLSKTAKKLENSAKKRISEGIAIAIQGGPR [Cecropin P1] | – | – | – | – | – | >20 μg/ml^1 μg/mL | >20 μg/ml^1 μg/mL |
